Results as given in patent publication US10981891B2, “Antibacterial compounds and uses thereof” (priority 2016, dated 2021).
Converted amounts (≈) assume the structure as drawn.

What follows are molecules tested on M. tuberculosis H37Rv (ATCC 27294) (assay: Microplate Alamar Blue assay (MABA), MIC against replicating M. tuberculosis H37Rv). Settings: Mycobacterium tuberculosis, 168 h; H37Rv, MABA, 7H12 media, 7 days at 37° C.; MIC = lowest concentration reducing fluorescence by 90% relative to controls; read-out: M. tuberculosis MIC.
Assay type: cell-based
`COc1cc(C(c2cc3cc(Br)ccc3nc2OC)C(O)(CCN(C)C)c2cccc3ccoc23)cc(OC(C)C)n1` (stereo not shown) [Example 21, 2-(Benzofuran-7-yl)-1-(6-bromo-2-methoxyquinolin-3-yl)-4-(dimethylamino)-1-(2-isopropoxy-6-methoxypyridin-4-yl)butan-2-ol] was tested, and the MIC was < 0.02 µg/mL.
In the case of `COc1cc(C(O)(CCN(C)C)C(c2cc3cc(C#N)ccc3nc2OC)c2cccc(OC)c2F)cc(OC(F)F)n1` (stereo not shown) [Example 82, 3-(2-(2-(Difluoromethoxy)-6-methoxypyridin-4-yl)-4-(dimethylamino)-1-(2-fluoro-3-methoxyphenyl)-2-hydroxybutyl)-2-methoxyquinoline-6-carbonitrile], the MIC is reported as < 0.02 µg/mL.
With `COc1cc(C(O)(CCN(C)C)C(c2cc3cc(C#N)ccc3nc2OC)c2cccc3c2OCCO3)cc(OC(F)F)n1` (stereo not shown) [Example 91, 3-(2-(2-(Difluoromethoxy)-6-methoxypyridin-4-yl)-1-(2,3-dihydrobenzo[b][1,4]dioxin-5-yl)-4-(dimethylamino)-2-hydroxybutyl)-2-methoxyquinoline-6-carbonitrile] the MIC was 0.02 µg/mL (≈ 0.033 µM).
`COc1cc(C(O)(CCN(C)C)C(c2cc3cc(Br)ccc3nc2OC)c2ccnc(OC)c2OC)cc(OC(C)C)n1` (stereo not shown) [Example 18, 1-(6-Bromo-2-methoxyquinolin-3-yl)-1-(2,3-dimethoxypyridin-4-yl)-4-(dimethylamino)-2-(2-isopropoxy-6-methoxypyridin-4-yl)butan-2-ol] was tested, and the MIC was < 0.01 µg/mL.
In the case of `COc1cc(C(O)(CCN(C)C)C(c2ccccc2)c2cc3cc(I)ccc3nc2OC)cc(OC)n1` (stereo not shown) [Example 42, 2-(2,6-Dimethoxypyridin-4-yl)-4-(dimethylamino)-1-(6-iodo-2-methoxyquinolin-3-yl)-1-phenylbutan-2-ol], the MIC is reported as < 0.02 µg/mL.
In the case of `CCOc1cc(C(c2cc3cc(Br)ccc3nc2OC)C(O)(CCN(C)C)c2cccc3ccoc23)cc(OCC)n1` (stereo not shown) [Example 12, 2-(Benzofuran-7-yl)-1-(6-bromo-2-methoxyquinolin-3-yl)-1-(2,6-diethoxypyridin-4-yl)-4-(dimethylamino)butan-2-ol], the MIC is reported as < 0.01 µg/mL.
For `COc1cc(C(O)(CCN(C)C)C(c2cc3cc(C#N)ccc3nc2OC)c2cccc(C)c2F)cc(OC(F)F)n1` (stereo not shown) [Example 88, 3-(2-(2-(Difluoromethoxy)-6-methoxypyridin-4-yl)-4-(dimethylamino)-1-(2-fluoro-3-methylphenyl)-2-hydroxybutyl)-2-methoxyquinoline-6-carbonitrile], the MIC was 0.01 µg/mL (≈ 0.0172 µM).
`COc1cc(C(O)(CCN(C)C)C(c2cc3cc(Br)ccc3nc2OC)c2ccnc(OC)c2OC)c(OC)c(OC)n1` (stereo not shown) [Example 61, 1-(6-Bromo-2-methoxyquinolin-3-yl)-1-(2,3-dimethoxypyridin-4-yl)-4-(dimethylamino)-2-(2,3,6-trimethoxypyridin-4-yl)butan-2-ol] was tested, and the MIC was 0.02 µg/mL (≈ 0.0304 µM).
`COc1cc(C(O)(CCN(C)C)C(c2cc3cc(Br)ccc3nc2OC)c2sc(OC)nc2Cl)cc(OC)n1` (stereo not shown) [Example 71, 1-(6-Bromo-2-methoxyquinolin-3-yl)-1-(4-chloro-2-methoxythiazol-5-yl)-2-(2,6-dimethoxypyridin-4-yl)-4-(dimethylamino)butan-2-ol] showed an MIC of 0.03 µg/mL (≈ 0.047 µM).
Work on `CCOc1cc(C(O)(CCN(C)C)C(c2cccc(C)c2)c2cc3cc(Cl)ccc3nc2OC)cc(OCC)n1` (stereo not shown) [Example 32, 1-(6-Chloro-2-methoxyquinolin-3-yl)-2-(2,6-diethoxypyridin-4-yl)-4-(dimethylamino)-1-(m-tolyl)butan-2-ol] yielded an MIC of 0.02 µg/mL (≈ 0.0355 µM).
`COc1nc2ccc(C#N)cc2cc1C(c1cccc(F)c1)C(O)(CCN(C)C)c1cccc2ccoc12` (stereo not shown) [Example 74, 3-(2-(Benzofuran-7-yl)-4-(dimethylamino)-1-(3-fluorophenyl)-2-hydroxybutyl)-2-methoxyquinoline-6-carbonitrile] gave an MIC of 0.04 µg/mL (≈ 0.0785 µM).
In the case of `CCOc1cc(C(O)(CCN(C)C)C(c2cc3cc(Br)ccc3nc2OC)c2ccnc(OC)c2OC)cc(OC(C)C)n1` (stereo not shown) [Example 23, 1-(6-Bromo-2-methoxyquinolin-3-yl)-1-(2,3-dimethoxypyridin-4-yl)-4-(dimethylamino)-2-(2-ethoxy-6-isopropoxypyridin-4-yl)butan-2-ol], the MIC is reported as < 0.02 µg/mL.
`COc1cc(C(O)(CCN(C)C)C(c2cc3cc(Br)ccc3nc2OC)c2ccnc(OC)c2OC)cc(N(C)C)n1` (stereo not shown) [Example 68, 1-(6-Bromo-2-methoxyquinolin-3-yl)-1-(2,3-dimethoxypyridin-4-yl)-4-(dimethylamino)-2-(2-(dimethylamino)-6-methoxypyridin-4-yl)butan-2-ol] was tested, and the MIC was 0.01 µg/mL (≈ 0.0156 µM).
For `COc1nc2ccc(Br)cc2cc1C(c1ccnc(OC)c1OC)C(O)(CCN(C)C)c1ccc2occc2c1` (stereo not shown) [Example 10, 2-(Benzofuran-5-yl)-1-(6-bromo-2-methoxyquinolin-3-yl)-1-(2,3-dimethoxypyridin-4-yl)-4-(dimethylamino)butan-2-ol], the MIC was 0.03 µg/mL (≈ 0.0495 µM).
With `COc1cc(C(c2cc3cc(C#N)ccc3nc2OC)C(O)(CCN(C)C)c2cccc3ccoc23)cc(OC(C)C)n1` (stereo not shown) [Example 77, 3-(2-(Benzofuran-7-yl)-4-(dimethylamino)-2-hydroxy-1-(2-isopropoxy-6-methoxypyridin-4-yl)butyl)-2-methoxyquinoline-6-carbonitrile] the MIC was < 0.02 µg/mL.
For `COc1cc(C(O)(CCN(C)C)C(c2cc3cc(C#N)ccc3nc2OC)c2cccc(C)c2F)cc(OC)n1` (stereo not shown) [Example 86, 3-(2-(2,6-Dimethoxypyridin-4-yl)-4-(dimethylamino)-1-(2-fluoro-3-methylphenyl)-2-hydroxybutyl)-2-methoxyquinoline-6-carbonitrile], the MIC was < 0.02 µg/mL.
In the case of `COc1cccc(C(c2cc3cc(Br)ccc3nc2OC)C(O)(CCN(C)C)c2cc(SC)nc(SC)c2)c1F` (stereo not shown) [Example 45, 2-(2,6-Bis(methylthio)pyridin-4-yl)-1-(6-bromo-2-methoxyquinolin-3-yl)-4-(dimethylamino)-1-(2-fluoro-3-methoxyphenyl)butan-2-ol], the MIC is reported as < 0.02 µg/mL.
`CCCOc1cc(C(O)(CCN(C)C)C(c2cc3cc(Br)ccc3nc2OC)c2ccnc(OC)c2OC)cc(OC)n1` (stereo not shown) [Example 28, 1-(6-Bromo-2-methoxyquinolin-3-yl)-1-(2,3-dimethoxypyridin-4-yl)-4-(dimethylamino)-2-(2-methoxy-6-propoxypyridin-4-yl)butan-2-ol] was tested, and the MIC was 0.01 µg/mL (≈ 0.0153 µM).
For `COc1cc(C(O)(CCN(C)C)C(c2cc3cc(Br)ccc3nc2OC)c2cccc(OC)c2F)cc(OC(F)F)n1` (stereo not shown) [Example 49, 1-(6-Bromo-2-methoxyquinolin-3-yl)-2-(2-(difluoromethoxy)-6-methoxypyridin-4-yl)-4-(dimethylamino)-1-(2-fluoro-3-methoxyphenyl)butan-2-ol], the MIC was 0.04 µg/mL (≈ 0.0615 µM).
`COc1cc(C(O)(CCN(C)C)C(c2ccc(C)s2)c2cc3cc(Br)ccc3nc2OC)cc(OC)n1` (stereo not shown) [Example 11, 1-(6-Bromo-2-methoxyquinolin-3-yl)-2-(2,6-dimethoxypyridin-4-yl)-4-(dimethylamino)-1-(5-methylthiophen-2-yl)butan-2-ol] was tested, and the MIC was < 0.02 µg/mL.
`COc1cc(C(O)(CCN(C)C)C(c2cc3cc(Br)ccc3nc2OC)c2ccnc(OC)c2OC)cc(OC(F)F)n1` (stereo not shown) [Example 51, 1-(6-Bromo-2-methoxyquinolin-3-yl)-2-(2-(difluoromethoxy)-6-methoxypyridin-4-yl)-1-(2,3-dimethoxypyridin-4-yl)-4-(dimethylamino)butan-2-ol] was tested, and the MIC was < 0.004 µg/mL.
Molecule `COc1cc(C(O)(CCN(C)C)C(c2cc3cc(C#N)ccc3nc2OC)c2ccnc(OC)c2OC)cc(N(C)C)n1` (stereo not shown) [Example 94, 3-(1-(2,3-Dimethoxypyridin-4-yl)-4-(dimethylamino)-2-(2-(dimethylamino)-6-methoxypyridin-4-yl)-2-hydroxybutyl)-2-methoxyquinoline-6-carbonitrile] has an MIC of 0.06 µg/mL (≈ 0.102 µM).
Molecule `COc1nc2ccc(C#N)cc2cc1C(c1cccc2c1OCCO2)C(O)(CCN(C)C)c1cc(SC)nc(SC)c1` (stereo not shown) [Example 90, 3-(2-(2,6-Bis(methylthio)pyridin-4-yl)-1-(2,3-dihydrobenzo[b][1,4]dioxin-5-yl)-4-(dimethylamino)-2-hydroxybutyl)-2-methoxyquinoline-6-carbonitrile] has an MIC of 0.01 µg/mL (≈ 0.0166 µM).
`COc1cc(C(O)(CCN(C)C)C(c2cc3cc(C#N)ccc3nc2OC)c2cccc(OC)c2F)cc(SC)n1` (stereo not shown) [Example 87, 3-(4-(Dimethylamino)-1-(2-fluoro-3-methoxyphenyl)-2-hydroxy-2-(2-methoxy-6-(methylthio)pyridin-4-yl)butyl)-2-methoxyquinoline-6-carbonitrile] was tested, and the MIC was 0.02 µg/mL (≈ 0.0347 µM).
`CNCCC(O)(c1cc(OC)nc(OC)c1)C(c1ccc(C)s1)c1cc2cc(C#N)ccc2nc1OC` (stereo not shown) [Example 78, 3-(2-(2,6-Dimethoxypyridin-4-yl)-2-hydroxy-4-(methylamino)-1-(5-methylthiophen-2-yl)butyl)-2-methoxyquinoline-6-carbonitrile] showed an MIC of 0.09 µg/mL (≈ 0.174 µM).
`CCOc1cc(C(O)(CCN(C)C)C(c2cccc(C)c2)c2cc3cc(Br)ccc3nc2OC)cc(OCC)n1` (stereo not shown) [Example 34, 1-(6-Bromo-2-methoxyquinolin-3-yl)-2-(2,6-diethoxypyridin-4-yl)-4-(dimethylamino)-1-(m-tolyl)butan-2-ol] was tested, and the MIC was 0.04 µg/mL (≈ 0.0657 µM).
`CCSc1cc(C(O)(CCN(C)C)C(c2cc3cc(Br)ccc3nc2OC)c2cccc(OC)c2F)cc(SCC)n1` (stereo not shown) [Example 44, 2-(2,6-Bis(ethylthio)pyridin-4-yl)-1-(6-bromo-2-methoxyquinolin-3-yl)-4-(dimethylamino)-1-(2-fluoro-3-methoxyphenyl)butan-2-ol] was tested, and the MIC was < 0.02 µg/mL.
Molecule `COc1nc2ccc(Br)cc2cc1C(c1ccnc(OC)c1OC)C(O)(CCN(C)C)c1cccc(C)c1` (stereo not shown) [Example 4, 1-(6-Bromo-2-methoxyquinolin-3-yl)-1-(2,3-dimethoxypyridin-4-yl)-4-(dimethylamino)-2-(m-tolyl)butan-2-ol] has an MIC of 0.02 µg/mL (≈ 0.0345 µM).
